Laboratory results reported in patent US4839350A, “Cephalosporin compounds and the production thereof” (Meiji Seika Kaisha, Ltd., priority 1984, dated 1989).
Structures can show the parent of a compound that is named as a salt. Where two headings read alike, the source gives them in different places.

What was measured:
Format in all cases: cell-based
[1] = tested on: Escherichia coli NIHJ JC-2; assay: MIC by agar-dilution method, Escherichia coli NIHJ JC-2
Source text: (§1) The compounds of this invention are all novel compounds.

Proteus mirabilis GN 79 = assay: MIC by agar-dilution method, Proteus mirabilis GN 79
Source text: as §1

Proteus rettgeri GN 624 = assay: MIC by agar-dilution method, Proteus rettgeri GN 624
Source text: as §1

[2] = tested on: Salmonella typhimurium LT-2; assay: MIC by agar-dilution method, Salmonella typhimurium LT-2
Source text: as §1

[3] = tested on: Staphylococcus aureus Smith; assay: MIC by agar-dilution method, Staphylococcus aureus Smith
Source text: as §1

[4] = tested on: Serratia marcescens No. 1; assay: MIC by agar-dilution method, Serratia marcescens No. 1
Source text: as §1

[5] = tested on: Klebsiella pneumoniae PCI 602; assay: MIC by agar-dilution method, Klebsiella pneumoniae PCI 602
Source text: as §1

[6] = tested on: Staphylococcus aureus 209P JC-1; assay: MIC by agar-dilution method, Staphylococcus aureus 209P JC-1
Source text: as §1

Proteus vulgaris GN 76 = assay: MIC by agar-dilution method, Proteus vulgaris GN 76
Source text: as §1

[7] = tested on: Pseudomonas aeruginosa MB 3833; assay: MIC by agar-dilution method, Pseudomonas aeruginosa MB 3833
Source text: as §1

[8] = Providencia rettgeri, GN624, read-out: MIC.
[9] = Salmonella enterica, read-out: MIC.

Compound	MIC ([1]; NIHJJC2, read-out: MIC.)	MIC (Proteus mirabilis GN 79; GN79, read-out: MIC.)	MIC (Proteus rettgeri GN 624; [8])	MIC [2, 9]	MIC ([3]; read-out: MIC.)	MIC ([4]; read-out: MIC.)	MIC ([5]; PCI602, read-out: MIC.)	MIC ([6]; read-out: MIC.)	MIC (Proteus vulgaris GN 76; GN76, read-out: MIC.)	MIC ([7]; MB3833, read-out: MIC.)	MIC [1]	MIC (Proteus mirabilis GN 79)	MIC (Proteus rettgeri GN 624)	MIC [2]	MIC [3]	MIC [4]	MIC [5]	MIC [6]	MIC (Proteus vulgaris GN 76)	MIC [7]
CO/N=C(\C(=O)NC1C(=O)N2C(C(=O)O)=C(C=Cc3ccccc3F)CSC12)c1csc(N)n1 (mixture of isomers) [Example 14, 7-[2-methoxyimino-2-(2-aminothiazol-4-yl)acetamido]-3-[2-(o-fluorophenyl)vinyl]-3-cephem-4-carboxylic acid trifluoroacetate (syn-isomer, mixed cis- and trans-isomers)]	3.13 µg/mL	0.2 µg/mL	1.56 µg/mL	3.13 µg/mL	0.39 µg/mL	1.56 µg/mL	3.13 µg/mL	0.2 µg/mL	0.2 µg/mL	> 50 µg/mL	–	–	–	–	–	–	–	–	–	–
Cc1ncsc1C=CC1=C(C(=O)O)N2C(=O)C(NC(=O)C(=NOCC(=O)O)c3csc(N)n3)C2SC1.O=C(O)C(F)(F)F (single isomer, unassigned) [Example 16, 7-[2-carboxymethoxyimino-2-(2-aminothiazol-4-yl)acetamido]-3-[2-(4-methylthiazol-5yl)vinyl]-3-cephem-4-carboxylic acid trifluoroacetate (syn-isomer, trans-isomer)]	–	–	–	–	–	–	–	–	–	–	0.39 µg/mL	0.05 µg/mL	1.56 µg/mL	0.10 µg/mL	3.13 µg/mL	0.05 µg/mL	0.20 µg/mL	3.13 µg/mL	≤ 0.025 µg/mL	12.5 µg/mL
CO/N=C(\C(=O)NC1C(=O)N2C(C(=O)O)=C(/C=C\c3scnc3C)CSC12)c1csc(N)n1 (stereo not drawn) [Example 10, 7-[2-methoxyimino-2-(2-aminothiazol-4-yl)acetamido]-3-[2-(4-methylthiazol-5-yl)vinyl]-3-cephem-4-carboxylic acid trifluoroacetate (cyn-isomer, cis-isomer)]	0.39 µg/mL	0.39 µg/mL	3.13 µg/mL	0.39 µg/mL	0.39 µg/mL	0.39 µg/mL	0.39 µg/mL	0.2 µg/mL	0.2 µg/mL	25 µg/mL	–	–	–	–	–	–	–	–	–	–
CO/N=C(\C(=O)NC1C(=O)N2C(C(=O)O)=C(/C=C\c3ccccc3)CSC12)c1csc(N)n1 (stereo not drawn) [Example 11, 7-[2-methoxyimino-2-(2-aminothiazol-4-yl)acetamido]-3-(2-phenylvinyl)-3-cephem-4-carboxylic acid trifluoroacetate (cyn-isomer, cis-isomer)]	3.13 µg/mL	0.78 µg/mL	3.13 µg/mL	6.25 µg/mL	0.78 µg/mL	1.56 µg/mL	3.13 µg/mL	0.78 µg/mL	0.78 µg/mL	> 50 µg/mL	–	–	–	–	–	–	–	–	–	–
CO/N=C(\C(=O)NC1C(=O)N2C(C(=O)O)=C(/C=C\c3ccco3)CSC12)c1csc(N)n1 (stereo not drawn) [Example 12, 7-[2-methoxyimino-2-(2-aminothiazol-4-yl)acetamido]-3-[2-(2-furyl)vinyl]-3-cephem-4-carboxylic acid sodium salt (cyn-isomer, cis-isomer)]	3.13 µg/mL	0.78 µg/mL	3.13 µg/mL	1.56 µg/mL	0.78 µg/mL	1.56 µg/mL	1.56 µg/mL	0.39 µg/mL	0.39 µg/mL	> 50 µg/mL	–	–	–	–	–	–	–	–	–	–
CO/N=C(\C(=O)NC1C(=O)N2C(C(=O)O)=C(/C=C/c3ccc([N+](=O)[O-])o3)CSC12)c1csc(N)n1 (stereo not drawn) [Example 13, 7-[2-methoxyimino-2-(2-aminothiazol-4-yl)acetamido]-3-[2-(5-nitor-2-furyl)vinyl]-3-cephem-4-carboxylic acid sodium salt (syn-isomer, trans-isomer)]	6.25 µg/mL	12.5 µg/mL	3.13 µg/mL	6.25 µg/mL	6.25 µg/mL	6.25 µg/mL	3.13 µg/mL	6.25 µg/mL	3.13 µg/mL	> 50 µg/mL	–	–	–	–	–	–	–	–	–	–
CO/N=C(\C(=O)NC1C(=O)N2C(C(=O)O)=C(/C=C\c3scnc3Cl)CSC12)c1csc(N)n1 (stereo not drawn) [Example 21, 7-[2-methoxyimino-2-(2-aminothiazol-4-yl)acetamido]-3-[2-(4-chlorothiazol-5-yl)vinyl]-3-cephem-4-carboxylic acid (syn-isomer, cis-isomer) sodium salt]	0.2 µg/mL	0.2 µg/mL	1.56 µg/mL	0.2 µg/mL	0.2 µg/mL	0.2 µg/mL	0.1 µg/mL	0.1 µg/mL	0.1 µg/mL	12.5 µg/mL	–	–	–	–	–	–	–	–	–	–
CO/N=C(\C(=O)NC1C(=O)N2C(C(=O)O)=C(/C=C/c3cnc(C)s3)CSC12)c1csc(N)n1 (stereo not drawn) [Example 30, 7-[2-methoxyimino-2-(2-aminothiazol-4-yl)acetamido]-3-[2-(2-methylthiazol-5-yl)vinyl]-3-cephem-4-carboxylic acid trifluoroacetate (syn-isomer, trans-isomer)]	0.78 µg/mL	0.2 µg/mL	0.2 µg/mL	0.39 µg/mL	1.56 µg/mL	0.2 µg/mL	0.78 µg/mL	0.78 µg/mL	0.1 µg/mL	> 50 µg/mL	–	–	–	–	–	–	–	–	–	–
CO/N=C(\C(=O)NC1C(=O)N2C(C(=O)O)=C(/C=C\c3cnc(C)s3)CSC12)c1csc(N)n1 (stereo not drawn) [Example 31, 7-[2-methoxyimino-2-(2-aminothiazol-4-yl)acetamido]-3-[2-(2-methylthiazol-5-yl)vinyl]-3-cephem-4-carboxylic acid trifluoroacetate (syn-isomer, cis-isomer)]	1.56 µg/mL	0.78 µg/mL	0.78 µg/mL	1.56 µg/mL	1.56 µg/mL	0.78 µg/mL	1.56 µg/mL	0.78 µg/mL	0.2 µg/mL	> 50 µg/mL	–	–	–	–	–	–	–	–	–	–

Further lines, results first:

MIC ([1]; NIHJJC2, read-out: MIC.)	MIC (Proteus mirabilis GN 79; GN79, read-out: MIC.)	MIC (Proteus rettgeri GN 624; [8])	MIC [2, 9]	MIC ([3]; read-out: MIC.)	MIC ([4]; read-out: MIC.)	MIC ([5]; PCI602, read-out: MIC.)	MIC ([6]; read-out: MIC.)	MIC (Proteus vulgaris GN 76; GN76, read-out: MIC.)	MIC ([7]; MB3833, read-out: MIC.)	MIC [1]	MIC (Proteus mirabilis GN 79)	MIC (Proteus rettgeri GN 624)	MIC [2]	MIC [3]	MIC [4]	MIC [5]	MIC [6]	MIC (Proteus vulgaris GN 76)	MIC [7]	Compound
0.1 µg/mL	0.78 µg/mL	0.39 µg/mL	0.1 µg/mL	0.78 µg/mL	0.1 µg/mL	0.1 µg/mL	0.78 µg/mL	0.39 µg/mL	> 50 µg/mL	–	–	–	–	–	–	–	–	–	–	CO/N=C(\C(=O)NC1C(=O)N2C(C(=O)O)=C(C=Cc3sc[n+](C)c3C)CSC12)c1csc(N)n1 (stereo not drawn) [Example 15, 7-[2-methoxyimino-2-(2-aminothiazol-4-yl)acetamido]-3-[2-(3,4-dimethyl-5-thiazolio)vinyl]-3-cephem-4-carboxylic acid di-trifluoroacetate (syn-isomer)]
0.78 µg/mL	–	0.39 µg/mL	0.78 µg/mL	0.39 µg/mL	0.39 µg/mL	0.39 µg/mL	0.39 µg/mL	0.1 µg/mL	50 µg/mL	–	–	–	–	–	–	–	–	–	–	CO/N=C(\C(=O)NC1C(=O)N2C(C(=O)O)=C(/C=C/c3scnc3C)CSC12)c1csc(N)n1 (stereo not drawn) [Example 18, 7-[2-methoxyimino-2-(2-aminothiazol-4-yl)acetamido-3-[2-(4-methylthiazol-5-yl)vinyl]-3cephem-4-carboxylic acid sodium salt (syn-isomer, trans-isomer)]
1.56 µg/mL	–	6.25 µg/mL	0.78 µg/mL	0.78 µg/mL	0.78 µg/mL	1.56 µg/mL	0.39 µg/mL	0.1 µg/mL	100 µg/mL	–	–	–	–	–	–	–	–	–	–	CO/N=C(\C(=O)NC1C(=O)N2C(C(=O)O)=C(/C=C\c3cscn3)CSC12)c1csc(N)n1 (stereo not drawn) [Example 32, 7-[2-methoxyimino-2-(2-aminothiazol-4-yl)acetamido]-3-[2-(thiazol-4-yl)vinyl]-3-cephem-4-carboxylic acid sodium salt (syn-isomer, cis-isomer)]
0.39 µg/mL	0.39 µg/mL	0.78 µg/mL	0.39 µg/mL	0.39 µg/mL	0.39 µg/mL	0.2 µg/mL	0.39 µg/mL	0.1 µg/mL	25 µg/mL	–	–	–	–	–	–	–	–	–	–	CO/N=C(\C(=O)NC1C(=O)N2C(C(=O)O)=C(/C=C\c3cncs3)CSC12)c1csc(N)n1 (stereo not drawn) [Example 33, 7-[2-methoxyimino-2-(2-aminothiazol-4-yl)acetamido]-3-[2-(thiazol-5-yl)vinyl]-3-cephem-4-carboxylic acid sodium salt (syn-isomer, cis-isomer)]
3.13 µg/mL	0.78 µg/mL	1.56 µg/mL	3.13 µg/mL	0.2 µg/mL	1.56 µg/mL	3.13 µg/mL	0.2 µg/mL	1.56 µg/mL	100 µg/mL	–	–	–	–	–	–	–	–	–	–	CO/N=C(\C(=O)NC1C(=O)N2C(C(=O)O)=C(/C=C\c3sc(Cl)nc3Cl)CSC12)c1csc(N)n1 (stereo not drawn) [Example 34, 7-[2-methoxyimino-2-(2-aminothiazol-4-yl)acetamido]-3-[2-(2,4-dichlorothiazol-5-yl)vinyl]-3-cephem-4-carboxylic acid sodium salt (syn-isomer, cis-isomer)]
